In ChEMBL document CHEMBL1145498, “A systematic interaction map of validated kinase inhibitors with Ser/Thr kinases” (Proc Natl Acad Sci U S A, 2007):

Columns and labels:
[1] = biological target: Serine/threonine-protein kinase 16 (Homo sapiens) (UniProt O75716)
[2] = biological target: Mitogen-activated protein kinase 11 (Homo sapiens, UniProt Q15759)
[3] = biological target: T1, Myotonin-protein kinase (Homo sapiens) (UniProt Q09013)
T1 sequence (whole entry): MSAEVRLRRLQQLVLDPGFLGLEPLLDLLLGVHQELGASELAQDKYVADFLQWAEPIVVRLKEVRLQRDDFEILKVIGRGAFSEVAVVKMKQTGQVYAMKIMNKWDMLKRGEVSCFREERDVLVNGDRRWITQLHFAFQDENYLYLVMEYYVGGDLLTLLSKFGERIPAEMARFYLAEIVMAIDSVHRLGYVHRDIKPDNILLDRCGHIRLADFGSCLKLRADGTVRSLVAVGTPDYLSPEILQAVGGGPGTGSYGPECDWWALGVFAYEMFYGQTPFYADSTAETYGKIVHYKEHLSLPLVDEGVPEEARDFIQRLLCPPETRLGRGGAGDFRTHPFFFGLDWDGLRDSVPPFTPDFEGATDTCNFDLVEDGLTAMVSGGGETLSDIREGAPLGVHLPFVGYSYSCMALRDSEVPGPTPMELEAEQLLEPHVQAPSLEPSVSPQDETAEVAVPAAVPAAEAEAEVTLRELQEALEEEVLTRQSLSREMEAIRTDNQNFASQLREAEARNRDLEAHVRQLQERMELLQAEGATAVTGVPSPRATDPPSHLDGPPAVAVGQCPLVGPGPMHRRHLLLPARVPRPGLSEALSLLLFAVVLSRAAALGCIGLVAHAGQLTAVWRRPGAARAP

[4] = biological target: T2, Lymphokine-activated killer T-cell-originated protein kinase (Homo sapiens) (UniProt Q96KB5)
T2 sequence (whole entry): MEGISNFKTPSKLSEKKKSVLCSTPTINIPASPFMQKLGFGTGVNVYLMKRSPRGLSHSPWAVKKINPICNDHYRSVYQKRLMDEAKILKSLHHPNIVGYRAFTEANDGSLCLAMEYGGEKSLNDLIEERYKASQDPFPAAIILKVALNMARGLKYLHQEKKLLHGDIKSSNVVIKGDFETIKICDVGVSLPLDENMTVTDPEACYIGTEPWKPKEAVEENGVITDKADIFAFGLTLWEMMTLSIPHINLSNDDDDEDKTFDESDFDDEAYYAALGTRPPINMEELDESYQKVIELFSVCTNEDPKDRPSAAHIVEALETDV

[5] = biological target: Serine/threonine-protein kinase pim-2 (Homo sapiens, UniProt Q9P1W9)
[6] = biological target: Serine/threonine-protein kinase RIO2 (Homo sapiens) (UniProt Q9BVS4)
[7] = biological target: Calcium/calmodulin-dependent protein kinase type 1G (Homo sapiens) (UniProt Q96NX5)
[8] = biological target: Serine/threonine-protein kinase PLK1 (Homo sapiens) (UniProt P53350)
[9] = biological target: Serine/threonine-protein kinase pim-3 (Homo sapiens) (UniProt Q86V86)
[10] = biological target: T3, Calcium/calmodulin-dependent protein kinase type IV (Homo sapiens) (UniProt Q16566)
T3 sequence (whole entry): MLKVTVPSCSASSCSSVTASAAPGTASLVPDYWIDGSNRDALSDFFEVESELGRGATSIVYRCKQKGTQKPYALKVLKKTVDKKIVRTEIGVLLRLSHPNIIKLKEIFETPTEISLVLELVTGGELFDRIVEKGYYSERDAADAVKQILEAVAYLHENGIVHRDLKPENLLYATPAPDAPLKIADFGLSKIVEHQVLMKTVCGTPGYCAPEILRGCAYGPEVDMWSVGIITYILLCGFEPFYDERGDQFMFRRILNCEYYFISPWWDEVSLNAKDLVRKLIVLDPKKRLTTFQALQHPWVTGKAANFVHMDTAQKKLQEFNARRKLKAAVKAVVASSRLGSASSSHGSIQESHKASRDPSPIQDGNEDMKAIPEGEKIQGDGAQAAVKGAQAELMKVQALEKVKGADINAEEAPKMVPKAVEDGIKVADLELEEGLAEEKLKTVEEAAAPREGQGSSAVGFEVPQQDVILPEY

[11] = biological target: Calcium/calmodulin-dependent protein kinase type II subunit gamma (Homo sapiens) (UniProt Q13555)
[12] = biological target: Calcium/calmodulin-dependent protein kinase type II subunit delta (Homo sapiens) (UniProt Q13557)
[13] = biological target: Serine/threonine-protein kinase Chk2 (Homo sapiens, UniProt O96017)
[14] = biological target: TRAF2 and NCK-interacting protein kinase (Homo sapiens) (UniProt Q9UKE5)
[15] = biological target: Calcium/calmodulin-dependent protein kinase type II subunit alpha (Homo sapiens) (UniProt Q9UQM7)
[16] = biological target: Ribosomal protein S6 kinase alpha-3 (Homo sapiens) (UniProt P51812)
[17] = biological target: T4, 3-phosphoinositide-dependent protein kinase 1 (Homo sapiens) (UniProt O15530)
T4 sequence (whole entry): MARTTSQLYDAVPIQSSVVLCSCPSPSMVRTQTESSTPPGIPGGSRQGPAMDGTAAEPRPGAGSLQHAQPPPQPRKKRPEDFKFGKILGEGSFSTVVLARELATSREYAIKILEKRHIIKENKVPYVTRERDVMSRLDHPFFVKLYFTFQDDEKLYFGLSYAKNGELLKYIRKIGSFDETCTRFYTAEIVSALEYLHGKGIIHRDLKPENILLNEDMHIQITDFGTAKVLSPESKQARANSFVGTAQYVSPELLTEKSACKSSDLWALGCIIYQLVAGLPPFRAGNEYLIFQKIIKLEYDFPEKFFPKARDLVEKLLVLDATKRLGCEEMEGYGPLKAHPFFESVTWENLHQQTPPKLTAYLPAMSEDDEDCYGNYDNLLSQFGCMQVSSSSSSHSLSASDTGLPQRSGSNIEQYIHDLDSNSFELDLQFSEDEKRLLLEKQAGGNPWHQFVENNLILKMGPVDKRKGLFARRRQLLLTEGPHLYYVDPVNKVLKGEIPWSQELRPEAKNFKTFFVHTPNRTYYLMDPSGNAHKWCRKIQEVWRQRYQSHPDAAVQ

Serine/threonine-protein kinase pim-2, sequence (Q9P1W9 whole entry, looked up): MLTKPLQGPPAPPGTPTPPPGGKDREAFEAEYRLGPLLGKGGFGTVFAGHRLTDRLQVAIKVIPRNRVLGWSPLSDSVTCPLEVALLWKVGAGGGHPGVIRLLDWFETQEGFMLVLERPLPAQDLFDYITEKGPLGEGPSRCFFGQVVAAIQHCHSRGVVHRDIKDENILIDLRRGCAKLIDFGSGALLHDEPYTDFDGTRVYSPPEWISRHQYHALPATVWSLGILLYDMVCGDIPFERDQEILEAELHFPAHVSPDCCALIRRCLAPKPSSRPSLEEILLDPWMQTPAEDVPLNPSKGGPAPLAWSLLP
Ribosomal protein S6 kinase alpha-3 (Homo sapiens), sequence (P51812 whole entry): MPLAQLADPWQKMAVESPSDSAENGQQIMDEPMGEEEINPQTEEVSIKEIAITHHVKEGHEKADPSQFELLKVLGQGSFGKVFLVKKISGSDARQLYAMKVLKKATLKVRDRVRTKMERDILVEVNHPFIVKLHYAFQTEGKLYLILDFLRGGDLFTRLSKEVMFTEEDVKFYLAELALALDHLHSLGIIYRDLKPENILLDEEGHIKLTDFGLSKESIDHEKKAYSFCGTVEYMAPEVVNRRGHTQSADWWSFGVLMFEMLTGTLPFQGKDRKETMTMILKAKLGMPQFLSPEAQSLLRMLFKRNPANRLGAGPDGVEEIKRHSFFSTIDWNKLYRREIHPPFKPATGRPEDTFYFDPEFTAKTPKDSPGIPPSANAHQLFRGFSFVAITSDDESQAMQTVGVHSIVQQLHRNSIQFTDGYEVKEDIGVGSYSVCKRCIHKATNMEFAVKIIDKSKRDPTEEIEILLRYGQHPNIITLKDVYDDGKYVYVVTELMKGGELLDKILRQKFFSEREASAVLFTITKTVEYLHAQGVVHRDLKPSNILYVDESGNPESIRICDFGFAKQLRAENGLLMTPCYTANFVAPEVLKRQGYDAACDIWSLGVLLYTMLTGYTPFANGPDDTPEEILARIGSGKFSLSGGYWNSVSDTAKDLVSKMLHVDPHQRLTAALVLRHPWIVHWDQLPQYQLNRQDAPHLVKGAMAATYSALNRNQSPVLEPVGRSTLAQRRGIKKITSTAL
Serine/threonine-protein kinase Chk2, sequence (O96017 whole entry): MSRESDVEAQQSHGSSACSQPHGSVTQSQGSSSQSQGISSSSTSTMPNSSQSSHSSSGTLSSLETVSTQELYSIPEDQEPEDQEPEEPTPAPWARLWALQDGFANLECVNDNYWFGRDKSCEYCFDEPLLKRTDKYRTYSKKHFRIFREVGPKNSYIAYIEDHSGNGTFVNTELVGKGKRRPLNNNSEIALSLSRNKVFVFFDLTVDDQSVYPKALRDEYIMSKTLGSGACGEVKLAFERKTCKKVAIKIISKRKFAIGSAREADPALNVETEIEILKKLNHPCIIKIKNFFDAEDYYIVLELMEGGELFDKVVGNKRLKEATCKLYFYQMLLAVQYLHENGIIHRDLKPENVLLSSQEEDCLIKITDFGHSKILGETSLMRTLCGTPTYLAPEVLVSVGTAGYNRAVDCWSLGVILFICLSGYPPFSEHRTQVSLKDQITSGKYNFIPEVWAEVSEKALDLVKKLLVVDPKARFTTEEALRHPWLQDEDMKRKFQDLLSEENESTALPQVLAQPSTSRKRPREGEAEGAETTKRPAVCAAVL
Mitogen-activated protein kinase 11, sequence (Q15759 whole entry): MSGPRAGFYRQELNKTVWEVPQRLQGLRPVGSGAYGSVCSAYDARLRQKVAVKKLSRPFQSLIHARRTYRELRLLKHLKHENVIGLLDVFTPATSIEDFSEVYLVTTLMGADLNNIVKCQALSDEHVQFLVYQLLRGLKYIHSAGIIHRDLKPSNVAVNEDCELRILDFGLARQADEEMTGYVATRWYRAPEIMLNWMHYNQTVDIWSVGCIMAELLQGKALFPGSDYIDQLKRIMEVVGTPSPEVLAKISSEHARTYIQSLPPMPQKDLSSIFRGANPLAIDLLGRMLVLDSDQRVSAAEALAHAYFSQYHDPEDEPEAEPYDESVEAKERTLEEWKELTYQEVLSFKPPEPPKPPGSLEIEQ
Calcium/calmodulin-dependent protein kinase type II subunit gamma (Homo sapiens), sequence (Q13555 whole entry): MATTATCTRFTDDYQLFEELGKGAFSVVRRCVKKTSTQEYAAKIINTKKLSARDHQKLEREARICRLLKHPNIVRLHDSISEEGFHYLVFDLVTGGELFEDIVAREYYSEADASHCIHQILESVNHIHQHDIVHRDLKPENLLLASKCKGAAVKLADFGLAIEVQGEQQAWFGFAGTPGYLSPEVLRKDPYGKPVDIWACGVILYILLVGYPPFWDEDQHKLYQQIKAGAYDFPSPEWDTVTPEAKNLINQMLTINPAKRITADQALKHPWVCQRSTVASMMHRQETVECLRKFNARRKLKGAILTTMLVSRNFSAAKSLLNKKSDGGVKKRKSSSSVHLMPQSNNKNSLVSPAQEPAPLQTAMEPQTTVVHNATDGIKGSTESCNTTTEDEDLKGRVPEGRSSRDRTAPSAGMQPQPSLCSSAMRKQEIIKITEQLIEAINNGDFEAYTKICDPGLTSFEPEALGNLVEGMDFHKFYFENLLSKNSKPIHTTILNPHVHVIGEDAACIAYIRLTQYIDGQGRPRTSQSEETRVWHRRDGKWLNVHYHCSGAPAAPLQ
Serine/threonine-protein kinase PLK1 (Homo sapiens), sequence (P53350 whole entry): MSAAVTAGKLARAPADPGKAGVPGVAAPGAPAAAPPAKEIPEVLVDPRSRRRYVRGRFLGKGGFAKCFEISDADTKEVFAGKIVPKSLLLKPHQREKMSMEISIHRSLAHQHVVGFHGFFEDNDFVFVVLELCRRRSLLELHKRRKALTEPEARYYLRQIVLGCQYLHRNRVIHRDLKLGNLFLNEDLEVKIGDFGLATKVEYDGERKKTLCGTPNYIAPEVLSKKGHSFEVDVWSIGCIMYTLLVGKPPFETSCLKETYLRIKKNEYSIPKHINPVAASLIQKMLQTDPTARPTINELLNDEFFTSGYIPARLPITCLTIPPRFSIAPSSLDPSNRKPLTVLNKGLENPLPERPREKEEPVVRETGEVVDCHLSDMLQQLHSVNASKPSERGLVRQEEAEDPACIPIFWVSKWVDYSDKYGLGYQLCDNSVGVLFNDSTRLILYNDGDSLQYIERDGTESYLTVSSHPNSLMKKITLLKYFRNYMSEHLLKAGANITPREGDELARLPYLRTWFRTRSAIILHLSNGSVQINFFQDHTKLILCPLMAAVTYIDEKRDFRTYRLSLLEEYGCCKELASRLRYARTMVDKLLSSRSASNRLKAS
Calcium/calmodulin-dependent protein kinase type 1G (Homo sapiens), sequence (Q96NX5 whole entry): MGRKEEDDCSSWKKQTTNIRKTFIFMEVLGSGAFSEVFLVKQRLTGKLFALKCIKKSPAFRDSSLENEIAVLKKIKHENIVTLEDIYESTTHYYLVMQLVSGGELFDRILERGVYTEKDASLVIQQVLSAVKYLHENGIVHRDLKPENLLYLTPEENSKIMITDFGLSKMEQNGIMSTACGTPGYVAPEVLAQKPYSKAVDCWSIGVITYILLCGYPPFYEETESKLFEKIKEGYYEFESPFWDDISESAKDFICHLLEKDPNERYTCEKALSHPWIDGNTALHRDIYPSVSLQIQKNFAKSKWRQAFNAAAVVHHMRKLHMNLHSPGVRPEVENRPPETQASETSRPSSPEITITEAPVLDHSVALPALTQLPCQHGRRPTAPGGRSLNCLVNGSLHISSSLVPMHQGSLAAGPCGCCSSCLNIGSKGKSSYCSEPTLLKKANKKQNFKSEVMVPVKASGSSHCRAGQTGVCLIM
Serine/threonine-protein kinase 16 (Homo sapiens), sequence (O75716 whole entry): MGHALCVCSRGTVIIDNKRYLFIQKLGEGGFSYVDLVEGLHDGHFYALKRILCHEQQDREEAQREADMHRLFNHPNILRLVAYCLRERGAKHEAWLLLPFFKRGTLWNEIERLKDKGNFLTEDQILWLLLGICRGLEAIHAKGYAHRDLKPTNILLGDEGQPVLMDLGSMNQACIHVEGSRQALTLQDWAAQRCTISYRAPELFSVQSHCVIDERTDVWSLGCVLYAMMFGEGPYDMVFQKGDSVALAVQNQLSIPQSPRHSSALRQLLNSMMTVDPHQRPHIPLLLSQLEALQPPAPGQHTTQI
Serine/threonine-protein kinase RIO2 (Homo sapiens), sequence (Q9BVS4 whole entry, looked up): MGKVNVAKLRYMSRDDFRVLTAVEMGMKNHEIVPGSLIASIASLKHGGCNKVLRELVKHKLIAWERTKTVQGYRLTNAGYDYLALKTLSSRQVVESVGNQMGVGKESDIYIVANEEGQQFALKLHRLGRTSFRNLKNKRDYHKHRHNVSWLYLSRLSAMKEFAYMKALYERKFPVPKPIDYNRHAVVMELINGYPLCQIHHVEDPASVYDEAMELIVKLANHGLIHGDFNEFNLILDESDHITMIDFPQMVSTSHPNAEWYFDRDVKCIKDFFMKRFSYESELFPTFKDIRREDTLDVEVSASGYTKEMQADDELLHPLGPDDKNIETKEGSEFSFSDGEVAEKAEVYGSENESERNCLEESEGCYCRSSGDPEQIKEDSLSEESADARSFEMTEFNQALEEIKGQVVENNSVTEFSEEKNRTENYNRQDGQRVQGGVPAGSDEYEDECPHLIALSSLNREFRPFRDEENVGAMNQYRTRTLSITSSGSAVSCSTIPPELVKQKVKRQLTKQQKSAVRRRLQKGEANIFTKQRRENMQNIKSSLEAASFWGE

Structure (SMILES)	ΔTm [1] [°C]	ΔTm [2] [°C]	ΔTm [3] [°C]	ΔTm [4] [°C]	ΔTm [5] [°C]	ΔTm [6] [°C]	ΔTm [7] [°C]	ΔTm [8] [°C]	ΔTm [9] [°C]	ΔTm [10] [°C]	ΔTm [11] [°C]	ΔTm [12] [°C]	ΔTm [13] [°C]	ΔTm [14] [°C]	ΔTm [15] [°C]	ΔTm [16] [°C]	ΔTm [17] [°C]
Nc1cccc(-c2cc3c(Oc4cccc(O)c4)ncnc3[nH]2)c1	3.5	5.4	2.5	0.6	0.8	2.4	1	4.4	0.3	0.2	0.1	0.1	1.7	-0.4	0.5	0.4	-0.1
CSc1nc(-c2ccc(F)cc2)c(-c2ccnc(NC(C)c3ccccc3)c2)[nH]1 (racemic)	-0.1	9.5	1.3	0.4	-0.2	0	1.9	0.9	-0.5	-0.3	-0.3	0.9	0.7	-1.2	0.6	0.4	-0.9
COc1cc2c(cc1OC)-c1n[nH]c(Nc3cccc(F)c3)c1C2	0.4	0.1	2.4	0.2	0.2	-0.2	1.6	-0.2	2.6	0.5	-0.1	1.2	-0.1	0.7	0.3	2.2	-0.2
COc1nccc(-c2c(-c3ccc(F)cc3)ncn2[C@H]2CC[C@H](O)CC2)n1	-0.2	6.6	–	0.7	0.5	0	0.2	-0.2	-0.2	0.2	0.1	0.4	1.2	-0.5	1.5	0.6	0
CCOc1ccc(/C=C2/SC(=O)N(CCN)C2=O)cc1 [HIAZOLIDINEDIONE1]	-0.1	0.5	1.4	0.2	-0.1	-0.2	0.2	0.6	0.5	0.4	0	0	0.7	-0.4	-0.2	0	-0.3
CCN1/C(=C/C(C)=O)Sc2ccc(OC)cc21	1.7	-0.1	2.5	1.1	3.1	-0.2	-0.5	0.3	0.2	0.8	0.1	-0.6	0.1	0.1	-0.1	0.4	0.2
CN(C)C[C@@H]1CCn2cc(c3ccccc32)C2=C(C(=O)NC2=O)c2cn(c3ccccc23)CCO1 [RUBOXISTAURIN]	0.8	0.3	5.3	0.9	2.1	1.8	0.1	-0.9	5.8	2.9	1.6	–	3.5	-0.3	3.1	8.1	0.2
NCCNc1ncc(C(N)=O)c(Nc2cccc(C(F)(F)F)c2)n1	1.9	2	3.9	0.5	0.7	4.7	5.7	0.7	1.1	0.9	1.1	-0.6	6.6	1.3	-0.3	3.3	5.5
NS(=O)(=O)c1ccc(Nc2nc(OCC3CCCCC3)c3nc[nH]c3n2)cc1	4.4	0.6	3.2	0.9	0.6	4	1.6	5.1	1.3	0.7	0.3	0.2	2.5	-0.3	0.6	1.3	-0.1
CCCCc1c(-c2ccc(O)cc2)[nH]c2nccnc12 [ALOISINE A]	2.6	1	6.1	0.7	4.5	-1.8	0.6	2.8	7.7	0.4	1.1	1.8	5.7	0	0.1	3	4
c1ccc(-c2n[nH]c3c2oc2ccccc23)cc1	6.8	1.2	0	-0.2	1.1	2.9	0.3	2.2	-1.3	-0.2	0.4	-0.2	0.7	0.4	0.3	0.8	-0.5
Cc1c2ccncc2c(C)c2c1[nH]c1ccccc12 [ELLIPTECINE]	10.7	0.6	3.5	0.3	7.1	3.8	0.3	3.9	1.3	0.4	1.6	-0.3	2	-0.2	2.2	3.7	8.6
